Laboratory results published in ChEMBL document CHEMBL1140270, “Synthesis and biological evaluation of new biphalin analogues with non-hydrazine linkers” (Bioorg Med Chem Lett, 2005).

Assays:
Mu-type opioid receptor = Mu-type opioid receptor (Cavia porcellus, UniProt P97266); experiment: In vitro agonist activity against Opioid receptor mu in guinea pig ileum/longitudinal muscle myenteric plexus; format: functional, tissue-based
[1] = In vitro inhibition of [3H]DPDPE binding to Opioid receptor delta
[2] = In vitro inhibition of [3H]DAMGO binding to Opioid receptor mu
[3] = biological target: Delta-type opioid receptor (Mus musculus, UniProt P32300); experiment: In vitro agonist activity against Opioid receptor delta in mouse vas deferens; format: functional, tissue-based
[4] = biological target: Mu-type opioid receptor (Cavia porcellus) (UniProt P97266); experiment: Percent inhibition against Opioid receptor mu in guinea pig ileum/longitudinal muscle myenteric plexus; format: functional, tissue-based; details: concentration not given here
[5] = biological target: Delta-type opioid receptor (Mus musculus) (UniProt P32300); experiment: Percent inhibition against Opioid receptor delta in mouse vas deferens; format: functional, tissue-based; details: concentration not given here
Sequence of Delta-type opioid receptor (Mus musculus) (P32300 whole entry): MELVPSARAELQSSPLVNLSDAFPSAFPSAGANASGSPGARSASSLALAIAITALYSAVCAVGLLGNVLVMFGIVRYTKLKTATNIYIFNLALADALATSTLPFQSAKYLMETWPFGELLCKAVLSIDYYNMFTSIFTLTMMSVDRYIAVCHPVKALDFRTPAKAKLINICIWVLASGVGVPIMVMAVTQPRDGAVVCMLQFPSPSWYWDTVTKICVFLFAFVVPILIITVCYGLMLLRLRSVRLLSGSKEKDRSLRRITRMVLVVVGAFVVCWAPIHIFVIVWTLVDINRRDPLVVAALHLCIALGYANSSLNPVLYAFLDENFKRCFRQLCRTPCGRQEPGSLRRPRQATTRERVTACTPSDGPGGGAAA

Sequence of Mu-type opioid receptor (Cavia porcellus) (P97266 whole entry): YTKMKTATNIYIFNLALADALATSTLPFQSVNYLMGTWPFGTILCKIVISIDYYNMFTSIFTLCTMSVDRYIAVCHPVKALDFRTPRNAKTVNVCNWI
Sequence of Mu-type opioid receptor (P97266 whole entry): as above
Sequence of Delta-type opioid receptor (P32300 whole entry): as the sequence (P32300 whole entry) above

| inhibition [4] [%] | inhibition [5] [%] | Compound | IC50 (Mu-type opioid receptor) [nM] | IC50 [1] [nM] | IC50 [2] [nM] | IC50 [3] [nM] |
| --- | --- | --- | --- | --- | --- | --- |
| – | – | C[C@@H](NC(=O)[C@@H](N)Cc1ccc(O)cc1)C(=O)NCC(=O)N[C@@H](Cc1ccccc1)C(=O)Nc1ccc(NC(=O)[C@H](Cc2ccccc2)NC(=O)CNC(=O)[C@@H](C)N[C@@H](N)Cc2ccc(O)cc2)cc1 | 40 | 3.17 | 1.27 | 35.6 |
| 61 | 47 | N[C@H](Cc1ccc(O)cc1)C(=O)N[C@H](Cc1ccccc1)C(=O)Nc1ccccc1NC(=O)[C@@H](Cc1ccccc1)NC(=O)[C@H](N)Cc1ccc(O)cc1 | – | 640 | 3010 | – |
| – | – | C[C@@H](NC(=O)[C@@H](N)Cc1ccc(O)cc1)C(=O)NCC(=O)N[C@@H](Cc1ccccc1)C(=O)NNC(=O)[C@H](Cc1ccccc1)NC(=O)CNC(=O)[C@@H](C)NC(=O)[C@@H](N)Cc1ccc(O)cc1 [BIPHALIN] | – | 2.6 | 1.4 | – |
| – | – | C[C@@H](NC(=O)[C@@H](N)Cc1ccc(O)cc1)C(=O)NCC(=O)N[C@@H](Cc1ccccc1)C(=O)N1CCN(C(=O)[C@H](Cc2ccccc2)NC(=O)CNC(=O)[C@@H](C)N[C@@H](N)Cc2ccc(O)cc2)CC1 | 2.5 | 0.65 | 0.48 | 9.3 |
| 43 | 17 | N[C@H](Cc1ccc(O)cc1)C(=O)N[C@H](Cc1ccccc1)C(=O)Nc1ccc(NC(=O)[C@@H](Cc2ccccc2)NC(=O)[C@H](N)Cc2ccc(O)cc2)cc1 | – | 2400 | 8200 | – |
| – | – | C[C@@H](NC(=O)[C@@H](N)Cc1ccc(O)cc1)C(=O)NCC(=O)N[C@@H](Cc1ccccc1)C(=O)Nc1ccccc1NC(=O)[C@H](Cc1ccccc1)NC(=O)CNC(=O)[C@@H](C)N[C@@H](N)Cc1ccc(O)cc1 | 40 | 0.19 | 1.93 | 0.72 |

| Compound | inhibition [4] [%] | inhibition [5] [%] | IC50 (Mu-type opioid receptor) [nM] | IC50 [1] [nM] | IC50 [2] [nM] | IC50 [3] [nM] |
| --- | --- | --- | --- | --- | --- | --- |
| N[C@H](Cc1ccc(O)cc1)C(=O)N[C@H](Cc1ccccc1)C(=O)N1CCN(C(=O)[C@@H](Cc2ccccc2)NC(=O)[C@H](N)Cc2ccc(O)cc2)CC1 | 25.5 | 8.1 | – | 400 | 2700 | – |
